No end group written: not given here. *: point of attachment. For = O=C*

The test system of experiment [1] is TAP1 serum (Taiwan Miltenberger antibody positive sample). The experiment in a line: Anti-MUT serum (TAP1) reactivity of modified RBCs (saline and AHG). Format: cell-based, human. On the set-up: key: 0 or ‘−’ no agglutination; 0 or ‘−’ no agglutination; 1+ or 3=very weak agglutination; 1+ or 3=very weak agglutination; 2+ or 5=weak agglutination; 2+ or 5=weak agglutination; 3+ or 8=moderate strong agglutination; 3+ or 8=moderate strong agglutination; 4+ or 10/12=strong agglutination; 4+ or 10/12=strong agglutination; 4+ or 10/12=strong agglutination. The conditions noted are these: construct 50 μg/ml (2 hours, 37° C.). The procedure: The suspensions are either: • 1. incubated for 2 hours at 37° C. before being washed and suspended in a cell medium for serological analysis at a concentration of 0.8 to 3% (Method 1); or • 2. incubated for 3 to 4 hours at room temperature (circa 25° C.) followed by 18 hours at 4° C. before being washed and suspended in a cell medium for serological analysis at a concentration of 0.8 to 3% (Method 2).
Serological reactions are graded or scored by either of two established systems (0 or ‘−’ no agglutination, 1+ or 3=very weak agglutination, 2+ or 5=weak agglutination, 3+ or 8=moderate strong agglutination, 4+ or 10/12=strong agglutination)

A further experiment has as its system antibody negative serums. The experiment in a line: False positive reactions of modified RBCs with antibody negative serums/plasma. The following applies: for Reaction score BioVue AHG, PAC sample 47 / Reaction score BioVue AHG, PAC sample 48 / Reaction score BioVue AHG, PAC sample 51 / Reaction score BioVue AHG, PAC samples 1-46, 49, 50, 52, 53: blood donor plasma, construct 50 μg/ml (2 hours, 37° C.); for % False Positives: panel of blood donor plasma samples (PAC), BioVue AHG, construct 50 μg/ml. The experiment is classed as cell-based, human. On the set-up: key to Reaction score BioVue AHG, PAC samples 1-46, 49, 50, 52, 53 / Reaction score BioVue AHG, PAC sample 47 / Reaction score BioVue AHG, PAC sample 48 / Reaction score BioVue AHG, PAC sample 51 / agglutination score, T series serum 2 / agglutination score, T series serum 42 / agglutination score, T series serum 63 / agglutination score, T series serum 62 / agglutination score, T series serum 7 / agglutination score, T series serum 20 / agglutination score, T series serum 48 / agglutination score, T series serum 22 / agglutination score, T series serum 39 / agglutination score, T series serum 23 / agglutination score, T series serum 30 / agglutination score, T series serum 4 / agglutination score, T series serum 31 / agglutination score, T series serum 44 / agglutination score, T series serum 61 / agglutination score, T series serum 18 / agglutination score, T series serum 21 / agglutination score, T series serum 28 / agglutination score, T series serum 55 / agglutination score, false positive serum T18 / agglutination score, false positive serum T21 / agglutination score, false positive serum T28 / agglutination score, false positive serum T55 / agglutination score, false positive serum T78 / agglutination score, false positive serum T92: 0 or ‘−’ no agglutination; 0 or ‘−’ no agglutination; 1+ or 3=very weak agglutination; 1+ or 3=very weak agglutination; 2+ or 5=weak agglutination; 2+ or 5=weak agglutination; 3+ or 8=moderate strong agglutination; 3+ or 8=moderate strong agglutination; 4+ or 10/12=strong agglutination; 4+ or 10/12=strong agglutination; 4+ or 10/12=strong agglutination.

The subject of experiment [2] is Miltenberger Antibody Positive Panel. The experiment in a line: Reactivity of modified RBCs against the Miltenberger Antibody Positive Panel. The experiment is classed as cell-based, human. On the set-up: key to score vs panel 15 TAP2 / score vs panel 4 T7202 / score vs panel 8 T5896 / score vs panel 2 T217 / score vs panel 3 T165 / score vs panel 14 TAP1 / score vs panel 10 Mia / score vs panel 11 Mur / score vs panel 12 Gam / score vs panel 6 T6025 / score vs panel 7 T8445 / score vs panel 9 MIII / score vs panel 13 BoxH / reactivity with Panel Serum #7 (T8445) / agglutination score, Panel Serum #7 (T8445): 0 or ‘−’ no agglutination; 0 or ‘−’ no agglutination; 1+ or 3=very weak agglutination; 1+ or 3=very weak agglutination; 2+ or 5=weak agglutination; 2+ or 5=weak agglutination; 3+ or 8=moderate strong agglutination; 3+ or 8=moderate strong agglutination; 4+ or 10/12=strong agglutination; 4+ or 10/12=strong agglutination; 4+ or 10/12=strong agglutination. The following applies: for score vs panel 2 T217 / score vs panel 3 T165 / score vs panel 4 T7202 / score vs panel 8 T5896 / score vs panel 14 TAP1 / score vs panel 15 TAP2: Table 8, construct 50 μg/ml; for sensitivity and specificity towards a human polyclonal antibody panel compared with sequence 1: MUT peptides, prior art sequence 1.

Experiment [3] relates to Miltenberger antibody positive sera. The experiment in a line: BioVue AHG card column agglutination serology of modified red blood cells. The experiment is classed as cell-based, human. On the set-up: key: 0 or ‘−’ no agglutination; 0 or ‘−’ no agglutination; 1+ or 3=very weak agglutination; 1+ or 3=very weak agglutination; 2+ or 5=weak agglutination; 2+ or 5=weak agglutination; 3+ or 8=moderate strong agglutination; 3+ or 8=moderate strong agglutination; 4+ or 10/12=strong agglutination; 4+ or 10/12=strong agglutination; 4+ or 10/12=strong agglutination. The conditions noted are these: construct 50 μg/ml.

Experiment [4] has as its system Miltenberger antibody positive samples and false positive antibody negative samples. The experiment in a line: Reactivity of RBCs modified with capped peptide-lipid constructs in alternative configurations. Format: cell-based. The following applies: capped construct 50 μg/mL, 2 hours at 37° C. On the set-up: key: 0 or ‘−’ no agglutination; 0 or ‘−’ no agglutination; 1+ or 3=very weak agglutination; 1+ or 3=very weak agglutination; 2+ or 5=weak agglutination; 2+ or 5=weak agglutination; 3+ or 8=moderate strong agglutination; 3+ or 8=moderate strong agglutination; 4+ or 10/12=strong agglutination; 4+ or 10/12=strong agglutination; 4+ or 10/12=strong agglutination. The procedure:
Peptide-lipid constructs comprising CMG(2) and the following peptides were prepared:
The termini of the peptides were formylated and amidated to provide “capped” peptides. The reactivity of random Miltenberger antibody positive samples and three false positive antibody negative samples were tested against RBCs modified to incorporate these “capped” peptide-lipid constructs (50 μg/mL, 2 hours at 37° C.).
The reactivity was assessed and recorded in Table 24. […] However, linkage of the peptide via a Cys residue located at the amino terminus (as opposed to the carboxy terminus) appeared to reduce the likelihood of reactivity with the false-positive antibody negative samples and improve reactivity with the known antibody positive samples.

As to “M34: DOPE peptide-lipid construct: MUTK peptide SSQTNDKHKR, leader c, spacer CMG(2) (SSQTNDKHKRC; also: DOPE peptide-lipid construct via leader Cys, spacer CMG(2))”, in experiment [1], the “Reactivity with anti-MUT serum TAP1” value came out at 5. In the experiment with antibody negative serums, the “Reaction score BioVue AHG, PAC sample 47” value is 0; the “Reaction score BioVue AHG, PAC sample 48” value worked out at 3; the “Reaction score BioVue AHG, PAC sample 51” value is on record as 5; the “Reaction score BioVue AHG, PAC samples 1-46, 49, 50, 52, 53” value (“Reaction score BioVue AHG … 53” for short) came out at 0. The “% False Positives” value with antibody negative serums worked out at 3.8%. Further, in experiment [2], the “score vs panel 2 T217” value is on record as 0, the “score vs panel 3 T165” value came to 0, the “score vs panel 4 T7202” value is on record as 0 and the “score vs panel 8 T5896” value came out at 0. For the same substance, in experiment [2], the “score vs panel 14 TAP1” value was determined as 3 and the “score vs panel 15 TAP2” value worked out at 0. Further, in experiment [3], the “BioVue score vs TAP1” value was determined as 5, the “BioVue score vs positive sample 2 T217 (T)” value is recorded as 0, the “BioVue score vs positive sample 3 T165 (Mur)” value is on record as 0 and the “BioVue score vs positive sample 4 T7202 (M)” value is 0. In experiment [3], the “BioVue score vs positive sample 8 T5896 (M + K + Mur)” value stood at 0.
On to “M35: DOPE peptide-lipid construct: MUTK peptide QTNDKHKRDT, leader c, spacer CMG(2) (QTNDKHKRDTC; also: DOPE peptide-lipid construct via leader Cys, spacer CMG(2))”, for which, in experiment [1], the “Reactivity with anti-MUT serum TAP1” value is listed as 5. In experiment [2], the “score vs panel 2 T217” value was 0, the “score vs panel 3 T165” value amounted to 0, the “score vs panel 4 T7202” value amounted to 0 and the “score vs panel 8 T5896” value worked out at 0. In experiment [2], the “score vs panel 14 TAP1” value was found to be 5 and the “score vs panel 15 TAP2” value is given as 0. In experiment [3], the “BioVue score vs TAP1” value is 5, the “BioVue score vs positive sample 2 T217 (T)” value turned out to be 0, the “BioVue score vs positive sample 3 T165 (Mur)” value stood at 0 and the “BioVue score vs positive sample 4 T7202 (M)” value was 0. In addition, the “BioVue score vs positive sample 8 T5896 (M + K + Mur)” value in experiment [3] turned out to be 0.
As for “M36: DOPE peptide-lipid construct: MUTK peptide SQTNDKHKRDT, leader c, spacer CMG(2) (SQTNDKHKRDTC; also: DOPE peptide-lipid construct via leader Cys, spacer CMG(2))”, the “Reactivity with anti-MUT serum TAP1” value in experiment [1] is 8. Further, in the experiment on antibody negative serums, the “Reaction score BioVue AHG, PAC sample 47” value is recorded as 3; the “Reaction score BioVue AHG, PAC sample 48” value is 5; the “Reaction score BioVue AHG, PAC sample 51” value came to 0; the “Reaction score BioVue AHG … 53” value is 0. The “% False Positives” value with antibody negative serums came out at 3.8%. Moreover, in experiment [2], the “sensitivity and specificity towards a human polyclonal antibody panel compared with sequence 1” value is “superior sensitivity and specificity”; the “score vs panel 2 T217” value is listed as 0; the “score vs panel 3 T165” value was found to be 0; the “score vs panel 4 T7202” value is recorded as 0. Also, in experiment [2], the “score vs panel 8 T5896” value is 0, the “score vs panel 14 TAP1” value is given as 8 and the “score vs panel 15 TAP2” value is given as 0. In experiment [3], the “BioVue score vs TAP1” value is recorded as 8, the “BioVue score vs positive sample 2 T217 (T)” value was 0, the “BioVue score vs positive sample 3 T165 (Mur)” value was found to be 0 and the “BioVue score vs positive sample 4 T7202 (M)” value is given as 0. Further, the “BioVue score vs positive sample 8 T5896 (M + K + Mur)” value in experiment [3] is 0.
As for “M37: DOPE peptide-lipid construct: MUTK peptide TNDKHKRDTYP, leader c, spacer CMG(2) (TNDKHKRDTYPC; also: DOPE peptide-lipid construct via leader Cys, spacer CMG(2))”, the “Reactivity with anti-MUT serum TAP1” value in experiment [1] is on record as 8. In the experiment with antibody negative serums, the “Reaction score BioVue AHG, PAC sample 47” value was 0; the “Reaction score BioVue AHG, PAC sample 48” value was found to be 0; the “Reaction score BioVue AHG, PAC sample 51” value amounted to 0; the “Reaction score BioVue AHG … 53” value is recorded as 0. Further, the “% False Positives” value in the experiment with antibody negative serums worked out at 0%. In experiment [2], the “sensitivity and specificity towards a human polyclonal antibody panel compared with sequence 1” value is “superior sensitivity and specificity”; the “score vs panel 2 T217” value came out at 5; the “score vs panel 3 T165” value is on record as 0; the “score vs panel 4 T7202” value is given as 8. Moreover, in experiment [2], the “score vs panel 8 T5896” value came out at 0, the “score vs panel 14 TAP1” value turned out to be 8 and the “score vs panel 15 TAP2” value amounted to 0. Also, in experiment [3], the “BioVue score vs TAP1” value turned out to be 8, the “BioVue score vs positive sample 2 T217 (T)” value turned out to be 5, the “BioVue score vs positive sample 3 T165 (Mur)” value stood at 0 and the “BioVue score vs positive sample 4 T7202 (M)” value stood at 8. Moreover, in experiment [3], the “BioVue score vs positive sample 8 T5896 (M + K + Mur)” value was found to be 0.
In the case of “M44: capped peptide-lipid construct comprising CMG(2) and ThrTyrProAlaHisThrAlaAsnGluCys (For-TYPAHTANEC-NH2; also: capped peptide-lipid construct comprising CMG(2))”, in experiment [4], the “agglutination score, antibody positive serum 55” value was determined as 8; the “agglutination score, antibody positive serum 61” value is 8; the “agglutination score, antibody positive serum 65” value was determined as 10; the “agglutination score, antibody positive serum 67” value worked out at 8. In experiment [4], the “agglutination score, antibody positive serum 68” value is reported as 0; the “agglutination score, antibody positive serum 71” value is reported as 10; the “agglutination score, antibody positive serum 942-433813-3” value turned out to be 0; the “agglutination score, false-positive antibody negative serum PAC302” value is given as 5. Moreover, in experiment [4], the “agglutination score, false-positive antibody negative serum PAC332” value amounted to 12 and the “agglutination score, false-positive antibody negative serum PAC340” value is reported as 5.
Consider “M45: capped peptide-lipid construct comprising CMG(2) and CysThrTyrProAlaHisThrAlaAsnGlu (For-CTYPAHTANE-NH2; also: capped peptide-lipid construct comprising CMG(2))”, for which, in experiment [4], the “agglutination score, antibody positive serum 55” value turned out to be 8; the “agglutination score, antibody positive serum 61” value is listed as 5; the “agglutination score, antibody positive serum 65” value was found to be 8; the “agglutination score, antibody positive serum 67” value was 10. Moreover, in experiment [4], the “agglutination score, antibody positive serum 68” value is reported as 0; the “agglutination score, antibody positive serum 71” value was found to be 10; the “agglutination score, antibody positive serum 942-433813-3” value was 5; the “agglutination score, false-positive antibody negative serum PAC302” value is 0. Also, in experiment [4], the “agglutination score, false-positive antibody negative serum PAC332” value turned out to be 0 and the “agglutination score, false-positive antibody negative serum PAC340” value turned out to be 0.

Source of the values: US10919941B2, “Functional lipid constructs” (KODE BIOTECH LIMITED, priority 2007, dated 2021).
